The results in this text go back to patent US12435045B2, “Tyrosine kinase inhibitors and pharmaceutical application thereof” (JIANGSU CONCORD BIOTECHNOLOGY CO., LTD, priority 2021, dated 2025).

The subject of the assay is 40 L of mesothelioma cell lines. Description: cell plate cloning experiment to detect cell proliferation. It counts as cell-based. The settings on record: 30 μM pretreatment; 200 cells/well; results after 10 days; compared with gefitinib 30 μM; FIG. 2. As for the experimental part:
Effects of the compound prepared in Example 1 and gefitinib were tested and compared. Experiment 1 included cell plate cloning experiments to detect cell proliferation.
• (1) 30 μM of gefitinib was used to pretreat one group of 40 L of mesothelioma cell lines, 30 μM of the compound prepared in Example 1 were used to pretreat another group of 40 L of mesothelioma cell lines, and phosphate-buffered saline (PBS) was used as a blank control group; • (2) The 40 L of cell lines in different treatment groups were collected; the cells were counted under a microscope, the cells were inoculated in a six-well plate by adjusting the number of cells to 200 cells/well (2 mL) with corresponding complete medium, and the cells were cultured in an incubator containing 5% CO2 at 37° C.; • (3) Fresh complete medium was changed every 3 days; • (4) After about 7-10 days of continuous culture, the culture medium was discarded, the cells were carefully washed with 1×PBS 3 times, and 1 mL of 4% paraformaldehyde was added to each culture dish to fix the cells for 30 minutes. The paraformaldehyde was discarded, and the cells were washed again with 1×PBS 3 times. The cells were stained with crystal violet at room temperature for 10 min, the staining solution was discarded, and the cells were washed with 1×PBS 3 times; and • (5) the cells were pictured with a camera and counted for statistical analysis. 2. […]

`COc1cc2ncnc(Nc3ccc(F)c(Cl)c3)c2cc1NC(=O)CBr` [Example 1, 4-((4-fluoro-3-chlorophenyl)amino)-7-methoxy-6-((N-bromoacetyl)amino)quinazoline]: the “ability in inhibiting the proliferation of tumor cells (plate cloning, colony count)” value is listed as “significantly better ability in inhibiting the proliferation of tumor cells than gefitinib”.
